Measured values taken from patent publication US9475840B2, “Protease-resistant compounds useful as shuttles through the blood-brain barrier and shuttle-cargo constructs” (UNIVERSITAT DE BARCELONA, priority 2012, dated 2016).
Like-named read-outs stand apart in the source and are kept apart here. Where a SMILES comes first, the peptide text is derived from it. [ ]: non-standard residue; d: D form. Quantum Dot = not defined here

What was measured:
[1] = Stability of the shuttle in human serum; settings: for half-life: human, serum
Protocol: At a range of times, 50 μL aliquots were collected to which methanol was added in order to precipitate the serum proteins. The samples were centrifuged, filtered and analysed by HPLC to determine the degree of degradation of the BBB-shuttle

[2] = system: co-culture of brain endothelial cells and astrocytes; test: Transport across the BBB, in vitro co-culture cell assay (transwell); settings: — = not detected in acceptor compartment; for Transport (%) (2 h): percentage of transport after a 2 hours assay; for Papp (×10^6) cm/s: apparent permeability, 2 h at 37° C., Ringer-HEPES buffer pH 7.4, triplicate, 50 μM or 0.75 nM (particles)
Description: (§1) The evaluation method chosen to test the compounds of formula (I) and (II) of the invention was a cell-based assay consisting of a co-culture of brain endothelial cells and astrocytes, which allows to evaluate or to predict the transport of compounds through the BBB. […] Under these conditions endothelial cells are able to reach the confluence mimicking the BBB. […] Is commonly used model for permeation studies and toxicity of compounds across the BBB.
(§2) The co-culture assay was used to determine the capacity of the constructs cargo-shuttle to cross the BBB. […] The permeability tests were performed in Ringer-HEPES buffer at pH 7.4. The compound of interest was dissolved in the buffer to the desired concentration.
(§3) Once the endothelial cells were confluent on the filters (transwells) these were washed with Ringer-HEPES buffer. The acceptor well was filled with 800 μL of Ringer-HEPES buffer and the donor well with 200 μL of the solution of the compound to be studied. The system was incubated at 37° C. and 5% CO2 for 2 h. After that time the content of the acceptor and donor compartments were analyzed by HPLC, ICP or fluorescence measurements (depending on cargo anchored to the shuttle). Transport was also confirmed by mass spectrometry MALDI-TOF.
(§4) The apparent permeability was calculated using the following equation: Papp=(dQ/dt)*(1/A)*(1/C0)(cm/s)
(§5) Where (dQ/dt) is the amount of compound present in the compartment acceptor function of time (nmol/s). A is the area of the filter (cm2) and C0 is the initial concentration of the compound applied in the donor compartment (nmol/mL).
(§6) The values of permeability equal to or higher than 1×10-6 cm/s are considered exceptionally good, and values equal to or higher than 0.1×10-6 cm/s are considered good.

[3] = as above; settings: pH 7.4
Description: as §1, §2, §3, §4, §5, §6

[4] = system: co-culture of brain endothelial cells and astrocytes
Description: as §1, §2, §3, §4, §5, §6

| Compound | Transport (%) (2 h) [2] | Papp [3] [×10⁻⁶ cm/s] | Papp (×10^6) cm/s [2] | further results |
| --- | --- | --- | --- | --- |
| CSCC[C@@H](NC(=O)[C@@H](Cc1c[nH]c2ccccc12)NC(=O)[C@@H](CO)NC(=O)[C@H]1CCCN1C(=O)[C@H](NC(=O)[C@@H](Cc1c[nH]c2ccccc12)NC(=O)[C@H]1CCCN1)C(C)C)C(=O)N1CCC[C@@H]1C(=O)N1CCC[C@@H]1C(=O)N[C@H](CCCNC(=N)N)C(=O)N[C@H](Cc1c[nH]cn1)C(=O)N[C@@H](C(N)=O)[C@H](C)O [Example 1, H-D-Pro-D-Trp-D-Val-D-Pro-D-Ser-D-Trp-D-Met-D-Pro-D-Pro-D-Arg-D-His-D-Thr-NH2] (HELM PEPTIDE1{[dP].[dW].[dV].[dP].[dS].[dW].[dM].[dP].[dP].[dR].[dH].[dT].[am]}$$$$V2.0) | 25.1 ± 3 | 21.4 ± 2.1 |  | half-life [1]: > 24 h |
| CSCC[C@@H](NC(=O)[C@@H](Cc1c[nH]c2ccccc12)NC(=O)[C@@H](CO)NC(=O)[C@H]1CCCN1C(=O)[C@H](NC(=O)[C@@H](Cc1c[nH]c2ccccc12)NC(=O)[C@H]1CCCN1C(=O)[C@@H](N)Cc1ccc(O)c(O)c1)C(C)C)C(=O)N1CCC[C@@H]1C(=O)N1CCC[C@@H]1C(=O)N[C@H](CCCNC(=N)N)C(=O)N[C@H](Cc1c[nH]cn1)C(=O)N[C@@H](C(N)=O)[C@H](C)O [Example 8, L-dopa-D-Pro-D-Trp-D-Val-D-Pro-D-Ser-D-Trp-D-Met-D-Pro-D-Pro-D-Arg-D-His-D-Thr-NH2] (HELM PEPTIDE1{[N[C@@H](Cc1ccc(O)c(O)c1)C(=O)[*:2]].[dP].[dW].[dV].[dP].[dS].[dW].[dM].[dP].[dP].[dR].[dH].[dT].[am]}$$$$V2.0) | 10.1 ± 1.3 | 8.46 ± 2.1 |  |  |
| CSCC[C@@H](NC(=O)[C@@H](Cc1c[nH]c2ccccc12)NC(=O)[C@@H](CO)NC(=O)[C@H]1CCCN1C(=O)[C@H](NC(=O)[C@@H](Cc1c[nH]c2ccccc12)NC(=O)[C@H]1CCCN1C(=O)c1ccc2c(c1)C(=O)OC21c2ccc(O)cc2Oc2cc(O)ccc21)C(C)C)C(=O)N1CCC[C@@H]1C(=O)N1CCC[C@@H]1C(=O)N[C@H](CCCNC(=N)N)C(=O)N[C@H](Cc1c[nH]cn1)C(=O)N[C@@H](C(N)=O)[C@H](C)O [Example 9, 5(6)-Carboxyfluorescein-D-Pro-D-Trp-D-Val-D-Pro-D-Ser-D-Trp-D-Met-D-Pro-D-Pro-D-Arg-D-His-D-Thr-NH2] (HELM PEPTIDE1{[O=C1OC2(c3ccc(O)cc3Oc3cc(O)ccc32)c2ccc(C(=O)[*:2])cc21].[dP].[dW].[dV].[dP].[dS].[dW].[dM].[dP].[dP].[dR].[dH].[dT].[am]}$$$$V2.0) | 17.1 ± 2.6 | 16.2 ± 1.3 |  |  |
| CSCC[C@@H](NC(=O)[C@@H](Cc1c[nH]c2ccccc12)NC(=O)[C@@H](CO)NC(=O)[C@H]1CCCN1C(=O)[C@H](NC(=O)[C@@H](Cc1c[nH]c2ccccc12)NC(=O)[C@H]1CCCN1C(=O)[C@@H](CCCCN)NC(=O)[C@@H](CCCCN)NC(=O)[C@@H](CC(C)C)NC(=O)[C@H](NC(=O)[C@@H](Cc1ccc2ccccc2c1)NC(=O)[C@@H](Cc1ccccc1)N(C)C(=O)[C@@H](C)N)C(C)C)C(C)C)C(=O)N1CCC[C@@H]1C(=O)N1CCC[C@@H]1C(=O)N[C@H](CCCNC(=N)N)C(=O)N[C@H](Cc1c[nH]cn1)C(=O)N[C@@H](C(N)=O)[C@H](C)O [Example 12, H-D-Ala-D-NMePhe-D-Nal(2)-D-Val-D-Leu-D-Lys-D-Lys-D-Pro-D-Trp-D-Val-D-Pro-D-Ser-D-Trp-D-Met-D-Pro-D-Pro-D-Arg-D-His-D-Thr-NH2] (HELM PEPTIDE1{[dA].[CN([C@H](Cc1ccccc1)C(=O)[*:2])[*:1]].[O=C([C@@H](Cc1ccc2ccccc2c1)N[*:1])[*:2]].[dV].[dL].[dK].[dK].[dP].[dW].[dV].[dP].[dS].[dW].[dM].[dP].[dP].[dR].[dH].[dT].[am]}$$$$V2.0) | 0.2 ± 0.04 | 0.14 ± 0.01 |  |  |
| CSCC[C@@H](NC(=O)[C@H]1CCCN1C(=O)[C@H]1CCCN1C(=O)[C@@H](CCCNC(=N)N)NC(=O)[C@@H](Cc1c[nH]cn1)NC(=O)[C@H](N)[C@H](C)O)C(=O)N[C@H](Cc1c[nH]c2ccccc12)C(=O)N[C@H](CO)C(=O)N1CCC[C@@H]1C(=O)N[C@@H](C(=O)N[C@H](Cc1c[nH]c2ccccc12)C(=O)N1CCC[C@@H]1C(N)=O)C(C)C [compound 2, H-D-Thr-D-His-D-Arg-D-Pro-D-Pro-D-Met-D-Trp-D-Ser-D-Pro-D-Val-D-Trp-D-Pro-NH2, reference compound] (HELM PEPTIDE1{[dT].[dH].[dR].[dP].[dP].[dM].[dW].[dS].[dP].[dV].[dW].[dP].[am]}$$$$V2.0) | 11.7 ± 6.4 | 9.9 ± 1.6 |  | half-life [1]: > 24 h |
| Antibody Avastin partially reduced and trapped with Ellman's reagent: bevacizumab (Avastin) antibody cargo, partially reduced and trapped with Ellman's reagent | 0.064 ± 0.006 |  | 0.054 ± 0.005 (×10^6) cm/s |  |
| H-Gly-D-Pro-D-Trp-D-Val-D-Pro-D-Ser-D-Trp-D-Met-D-Pro-D-Pro-D-Arg-D-His-D-Thr-NH2 [Example 2] |  |  |  | Transport (%) (2 h) [4]: 22.3 ± 2.6%; Papp (×10^6) cm/s ([4]; pH 7.4): 19.4 ± 1.8 (×10^6) cm/s |
| H-THRPPMWSPVWP-NH2 [compound 1, H-L-Thr-L-His-L-Arg-L-Pro-L-Pro-L-Met-L-Trp-L-Ser-L-Pro-L-Val-L-Trp-L-Pro-NH2, reference compound] | 14.9 ± 2.5 | 12.5 ± 5.2 |  | Degradation / half-life time in human serum (in words) ([1]; 150 μM, 37° C., 90% human serum): rapidly degraded; half-life [1]: < 1 h |
| Quantum Dot-Gly-D-Pro-D-Trp-D-Val-D-Pro-D-Ser-D-Trp-D-Met-D-Pro-D-Pro-D-Arg-D-His-D-Thr-NH2 ({Quantum Dot}-G[dP][dW][dV][dP][dS][dW][dM][dP][dP][dR][dH][dT]-NH2; reading uncertain; also: quantum dot nanoparticle conjugate, printed as Quantum Dot-Gly-D-Pro-D-Trp-D-Val-D-Pro-D-Ser-D-Trp-D-Met-D-Pro-D-Pro-D-Arg-D-His-D-Thr-NH2) [Example 10] | 0.31 ± 0.02 |  | 0.27 ± 0.03 (×10^6) cm/s |  |
| Rhodamine b-L-Lys(Antibody)-D-Pro-D-Trp-D-Val-D-Pro-D-Ser-D-Trp-D-Met-D-Pro-D-Pro-D-Arg-D-His-D-Thr-NH2 [Example 17] |  |  | 0.16 ± 0.10 (×10^6) cm/s |  |
| Rhodamine b-L-Lys(Antibody)-D-Pro-D-Trp-D-Val-D-Pro-D-Ser-D-Trp-D-Met-D-Pro-D-Pro-D-Arg-D-His-D-Thr-NH2 [Example 18] |  |  | 0.18 ± 0.05 (×10^6) cm/s |  |
| Rhodamine b-L-Lys(Antibody)-D-Pro-D-Trp-D-Val-D-Pro-D-Ser-D-Trp-D-Met-D-Pro-D-Pro-D-Arg-D-His-D-Thr-NH2 [Example 20] |  |  | 0.36 ± 019 (×10^6) cm/s |  |
| nanoparticle superparamagnetic iron oxide (SPION)-Gly-D-Pro-D-Trp-D-Val-D-Pro-D-Ser-D-Trp-D-Met-D-Pro-D-Pro-D-Arg-D-His-D-Thr-NH2 ({SPION}-G[dP][dW][dV][dP][dS][dW][dM][dP][dP][dR][dH][dT]-NH2) [Example 11] | 0.22 ± 0.05 |  | 0.19 ± 0.07 (×10^6) cm/s |  |
